Patent publication US5070210A, “Novel ketenimines as intermediates for insecticides” (ICI Americas Inc., priority 1990, dated 1991)

How the values were obtained:
Type in all cases: in vivo
[1] = test system: Tobacco Budworm [Heliothis virescens (Fabricius)] larvae; experiment: Tobacco budworm contact test; conditions: second-instar larvae, percent in solution, 5 days
How it was run: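 Cotton cotyledons dipped 2–3 s in compound in 50-50 acetone-water, dried, then infested with 5 second-instar larvae and held 5 days at high humidity. Mortality scored; LC50 from dosage-mortality curves, expressed as percent compound in solution, concentrations from 0.1% downward.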

[2] = test system: Housefly [Musca domestica]; experiment: Housefly insecticidal test; conditions: μg per 25 female flies; mortality after 48 hours
How it was run: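 LC50 (μg compound per 25 female flies) derives from dosage-mortality curves of 48 h kill. Flies, females 1-2 days old, were held 25 per cage over a dish coated with dried acetone deposit, starting at 100 μg per cage and descending.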

[3] = test system: Rice water weevil [Lissorhoptrus oryzophilus (Kuschel)]; experiment: Rice water weevil insecticidal test; conditions: topical, μg per weevil; 48 hours
Protocol: (§1) The compounds in Tables 1 and 2 above were tested for insecticidal activity using the following testing procedures. LC50 values, based on the results of these tests and calculated according to dosage-mortality curves, are expressed in Table 3.
Rice water weevil [Lissorhoptrus oryzophilus (Kuschel)]:
Test compounds were diluted in acetone. Droplets (1 μl) of test solutions were applied to the ventral abdomens of ten female adult weevils. The treated weevils were placed in containers with wet cotton balls and rice foliage. The containers were covered and kept at a temperature of about 25° C. Mortality was recorded after 48 hours. Test concentrations ranged from […] or 2.5 μg per weevil down to that at which 50% mortality occurred. The LC50 values are expressed below in Table 3 under the heading "RWW" in terms of μg of test compound per weevil.

[4] = test system: Beet Armyworm (Spodoptera exigua); experiment: Beet armyworm insecticidal test; conditions: second-instar larvae, percent in solution; five days
How it was run: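 Five second-instar larvae per dish fed on dried sugar beet leaves previously dipped 2–3 s in acetone-water (1:1) test solutions up to 0.1%. Kept at high humidity, with deaths counted after five days; LC50 as % in solution via dosage-mortality curves.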

[5] = test system: Cabbage Looper [Trichoplusia ni (Hubner)]; experiment: Cabbage looper insecticidal test; conditions: second-instar larvae, percent in solution; 3-5 days
How it was run: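 LC50 values, given as percent test compound in solution, were calculated from dosage-mortality curves. Squash cotyledons were immersed 2-3 s in acetone-water (50-50) dilutions starting at 0.1%, dried on a screen, then infested with five second-instar larvae. Mortality was read 3-5 days on.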

[6] = test system: Tobacco Budworm [Heliothis virescens (Fabricius)] eggs; experiment: Tobacco budworm egg test; conditions: 2-day old eggs, percent in solution
How it was run: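 2-day eggs on paper towel, acetone dip, 0.1% and below; petri dish with larval diet, 78° F. Mortality read after control hatch and larval feeding. LC50 = % compound in solution, from dose-mortality curve.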

[7] = test system: Aster Leafhopper [Macrosteles fascifrens (Stal)]; experiment: Aster leafhopper insecticidal test; conditions: adults/nymphs, percent in solution; 48 hours
How it was run: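 LC50 values, given as percent of test compound in the dip solution, were derived from dosage-mortality curves over concentrations from 0.05% downward. Mortality was counted 48 hours after ten leafhopper adults/nymphs were enclosed on treated seedlings. The seedlings were oats, about 10 cm tall, briefly dipped in 50-50 acetone-water.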

[8] = test system: Maize weevil [Sitophilus Zeamais (Motschulsky)]; experiment: Maize weevil insecticidal test; conditions: adult weevils, percent in solution; 48 hours
How it was run: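 LC50, in percent of compound in solution, was derived from dosage-mortality curves after 48 h at about 25 °C. Ten adult weevils per container fed on four corn seeds briefly immersed in acetone:water (50:50) solutions of up to 0.01% and dried.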

[9] = test system: Black Bean Aphid [Aphis fabae (Scop.)]; experiment: Black bean aphid insecticidal test; conditions: percent of test compound in sprayed solution; 48 hours
Protocol: as §1
Black Bean Aphid [Aphis fabae (Scop.)]:
Nasturtium plants (Tropaeolum sp.) approximately 5 cm tall, were transplanted into sandy loam soil in small cups and infested with 25-50 black bean aphids of mixed ages. Twenty-four hours later they were sprayed to the point of runoff with 50-50 acetone-water solutions of the test compounds. Treated plants were held in the greenhouse and mortality was recorded after 48 hours. Test concentrations ranged from 0.05% downward. The LC-50 value is expressed below in Table 3 under the heading "BBA" in terms of percent of the test compound in the sprayed solution.

| Compound | LC50, TBW, C (TBW-C) [1] [%] | LC50, HF [2] [µg] | LC50, RWW [3] [µg] | LC50, BAW [4] [%] | LC50, CL [5] [%] | LC50, TBW, E (TBW-E) [6] [%] | LC50, LH [7] [%] | LC50, MW [8] [%] | LC50, BBA [9] [%] |
| --- | --- | --- | --- | --- | --- | --- | --- | --- | --- |
| CC(C)C(=Nc1cc(F)cc(F)c1)OCc1cccc(Oc2ccccc2)c1 [Compound 55] | 0.004 | > 100 | > 2.5 | 0.006 | 0.0017 | 0.06 | 0.0005 | – | – |
| CC(C)C(=Nc1ccc(F)c(Cl)c1)OCc1cccc(Oc2ccccc2)c1 [Compound 81] | 0.0009 | 4 | > 0.5 | 0.003 | 0.0006 | 0.007 | 0.0003 | 0.005 | – |
| CC(C)C(=Nc1ccc(F)c(Cl)c1)OCc1ccc(F)c(Oc2ccccc2)c1 [Compound 82] | 0.0008 | 2.5 | 0.086 | 0.0025 | 0.00018 | 0.006 | 0.0001 | – | – |
| CC(C)C(=Nc1ccc(F)c(Cl)c1)OCc1cccc(Oc2ccc(F)cc2)c1 [Compound 89] | 0.0005 | 5 | > 2.5 | 0.009 | 0.00003 | 0.04 | 0.001 | 0.005 | – |
| CC(C)C(=Nc1ccc2c(c1)OCO2)OCc1cccc(Oc2ccccc2)c1 [Compound 180] | 0.003 | 2 | > 2.5 | 0.005 | 0.0004 | 0.03 | 0.0015 | 0.008 | – |
| CC(C)C(=Nc1ccc(F)c(Cl)c1)OCc1ccc(F)c(Oc2ccc(F)cc2)c1 [Compound 216] | 0.00018 | 2 | 0.067 | 0.0007 | 0.000007 | 0.005 | 0.00025 | 0.0017 | – |
| CC(C)C(=Nc1ccc(F)c(Cl)c1)OCc1cccc(Oc2ccc(Cl)cc2)c1 [Compound 239] | 0.0005 | 14 | > 2.5 | 0.005 | 0.00015 | 0.025 | 0.002 | 0.006 | – |
| CC(C)C(=Nc1ccc(F)c(Cl)c1)OCc1ccc(F)c(Oc2ccc(Cl)cc2)c1 [Compound 267] | 0.0003 | 8.4 | 0.11 | 0.0012 | 0.00008 | 0.015 | 0.002 | 0.0027 | – |
| CC(C)C(=Nc1ccc(Cl)cc1)OCc1cccc(Oc2ccc(Cl)cc2)c1 [Compound 269] | 0.001 | 25 | > 2.5 | 0.0024 | 0.0003 | 0.04 | 0.003 | > 0.01 | – |
| CC(C)C(=Nc1ccc(F)c(Br)c1)OCc1ccc(F)c(Oc2ccc(F)cc2)c1 [Compound 273] | 0.00025 | 7 | > 2.5 | 0.0017 | 0.000018 | 0.015 | 0.0003 | 0.004 | – |
| CC(C)C(=Nc1ccc(F)c(C(F)(F)F)c1)OCc1ccc(F)c(Oc2ccc(F)cc2)c1 [Compound 277] | 0.0005 | 4 | 0.065 | 0.005 | 0.00001 | 0.013 | 0.0003 | > 0.01 | – |
| CC(C)C(=Nc1ccc(F)c(F)c1)OCc1ccc(F)c(Oc2ccc(F)cc2)c1 [Compound 278] | 0.00026 | 3 | 0.085 | 0.0012 | 0.00002 | 0.008 | 0.0003 | 0.0063 | – |
| CC(C)C(=Nc1ccc(OC(F)(F)F)cc1)OCc1ccc(F)c(Oc2ccc(F)cc2)c1 [Compound 286] | 0.00017 | 34 | 0.09 | 0.0004 | 0.000024 | 0.005 | 0.0006 | 0.0039 | – |
| CC(C)C(=Nc1ccc(OC(F)(F)F)cc1)OCc1ccc(F)c(Oc2ccc(Cl)cc2)c1 [Compound 323] | 0.00065 | > 100 | 0.16 | 0.0025 | 0.0006 | 0.045 | 0.05 | 0.0075 | – |
| CC(C)C(=Nc1ccc(OC(F)(F)F)c(Cl)c1)OCc1cc(F)cc(Oc2ccc(F)cc2)c1 [Compound 328] | – | > 100 | – | – | 0.03 | > 0.1 | – | – | > 0.05 |
| CC(C)C(=Nc1ccc(F)c(F)c1F)OCc1ccc(F)c(Oc2ccc(F)cc2)c1 [Compound 349] | 0.0004 | 4.9 | > 2.5 | > 0.1 | 0.00007 | > 0.1 | – | > 0.01 | – |
| CC(C)C(=Nc1ccc(F)c(Cl)c1F)OCc1cccc(Oc2ccc(F)cc2)c1 [Compound 352] | 0.0004 | 4.6 | > 2.5 | > 0.1 | 0.000065 | > 0.1 | 0.0004 | 0.0075 | – |
